Measured values published in patent US20240158446A1, “CYCLIC COMPOUND HAVING SELECTIVE INHIBITORY ACTION ON KRAS OVER HRAS AND NRAS” (CHUGAI SEIYAKU KABUSHIKI KAISHA, priority 2021, published 2024).
Like-named read-outs stand apart in the source and are kept apart here. Where a SMILES comes first, the peptide text is derived from it. Bridges are numbered along the chain shown (N, C = ends). [ ]: non-standard residue; d: D form. The star is where a group is joined. hPhe(3,5-F2-4-CF3) = N[C@@H](CCc1cc(F)c(C(F)(F)F)c(F)c1)C(=O)O; hPhe(3-Cl-4-CF3) = N[C@@H](CCc1ccc(C(F)(F)F)c(Cl)c1)C(=O)O; NPrPhe(4-CF3) = CCCN[C@@H](Cc1ccc(C(F)(F)F)cc1)C(=O)O; Pro(4-spirocPr) = O=C(O)[C@@H]1CC2(CC2)CN1; NMeGly(cPent) = CN[C@H](C(=O)O)C1CCCC1; Nva(3-Et) = CCC(CC)[C@H](N)C(=O)O; NMeF = CN[C@@H](Cc1ccccc1)C(=O)O; NMeD = CN[C@@H](CC(=O)O)C(=O)O; NMeL = CN[C@@H](CC(C)C)C(=O)O; Morpholide = C1CN(*)CCO1; Ac5c = NC1(C(=O)O)CCCC1; Aze = O=C(O)[C@@H]1CCN1; Abu = CC[C@H](N)C(=O)O; Sar = CNCC(=O)O

Legend:
[1] = biological target: GDP-bound NRAS wild-type protein (Homo sapiens, UniProt P01111); assay: Binding to NRAS by surface plasmon resonance (SPR), Single Cycle Kinetics; conditions: for NRAS/KRAS (ratio of KD value for NRAS to KD value for KRAS) / NRAS/KRAS (ratio of KD value with respect to NRAS to KD value with respect to KRAS): SPR, GDP-bound NRAS wild-type protein vs GDP-bound KRAS wild-type protein; for NRAS/KRAS (ratio of KD value with respect to GDP-bound NRAS wild-type protein to KD value with respect to KRAS): SPR KD ratio NRAS/KRAS, class symbols
[2] = biological target: GDP-bound HRAS wild-type protein (Homo sapiens, UniProt P01112); assay: Binding to HRAS by surface plasmon resonance (SPR), Single Cycle Kinetics; conditions: for HRAS/KRAS (ratio of KD value for HRAS to KD value for KRAS) / HRAS/KRAS (ratio of KD value with respect to HRAS to KD value with respect to KRAS): SPR, GDP-bound HRAS wild-type protein vs GDP-bound KRAS wild-type protein; for HRAS/KRAS (ratio of KD value with respect to GDP-bound HRAS wild-type protein to KD value with respect to KRAS): SPR KD ratio HRAS/KRAS, class symbols
[3] = tested on: human lung cancer strain NCI-H441;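 also: cell proliferation inhibition after four days measured by CellTiter-Glo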

GDP-bound NRAS wild-type protein, sequence (P01111 whole entry): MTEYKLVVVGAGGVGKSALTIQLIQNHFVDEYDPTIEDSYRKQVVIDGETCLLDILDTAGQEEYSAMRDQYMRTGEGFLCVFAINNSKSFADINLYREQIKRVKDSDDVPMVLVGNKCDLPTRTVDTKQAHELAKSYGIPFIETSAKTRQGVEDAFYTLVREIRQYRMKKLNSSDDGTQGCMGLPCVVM
GDP-bound HRAS wild-type protein, sequence (P01112 whole entry): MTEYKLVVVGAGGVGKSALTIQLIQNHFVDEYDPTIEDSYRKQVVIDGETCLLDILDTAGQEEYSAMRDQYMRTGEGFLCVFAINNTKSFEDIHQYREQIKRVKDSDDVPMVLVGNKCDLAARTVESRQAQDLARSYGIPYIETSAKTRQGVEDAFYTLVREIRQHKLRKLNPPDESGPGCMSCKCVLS

Row | Structure (SMILES) | NRAS/KRAS (ratio of KD value for NRAS to KD value for KRAS) [1] | HRAS/KRAS (ratio of KD value for HRAS to KD value for KRAS) [2] | IC50 [3] | NRAS/KRAS (ratio of KD value with respect to NRAS to KD value with respect to KRAS) [1] | HRAS/KRAS (ratio of KD value with respect to HRAS to KD value with respect to KRAS) [2] | NRAS/KRAS (ratio of KD value with respect to GDP-bound NRAS wild-type protein to KD value with respect to KRAS) [1] | HRAS/KRAS (ratio of KD value with respect to GDP-bound HRAS wild-type protein to KD value with respect to KRAS) [2] | IC50 ([3]; read-out: NCI-H441 IC50, NCI-H441 cells, four days, CellTiter-Glo)
1 | CCC[C@H]1C(=O)N[C@@H]([C@@H](C)CC)C(=O)N(C)CC(=O)N(C)[C@H]2C/C=C\CCN(C2=O)[C@@H](Cc2ccc(C)cc2)C(=O)N(C)CC(=O)N[C@@H](CCc2ccc(C(F)(F)F)c(OC)c2)C(=O)N2CC3(CC3)C[C@H]2C(=O)NC2(CC(C)(C)C2)C(=O)N(C)[C@@H](CC(C)C)C(=O)N(C)[C@H](C(=O)N(C)C)CC(=O)N1C [PP3013] | AA (a compound having 20 or more is denoted as AA) | B (a compound having 3 or more and less than 10 is denoted as B) | 29.7 nM | – | – | – | – | –
2 | CCCN1C(=O)CN(C)C(=O)[C@@H]2CCN2C(=O)[C@H]([C@@H](C)CC)NC(=O)[C@H](CC(C)C)N(C)C(=O)C[C@@H](C(=O)N2CCOCC2)N(C)C(=O)[C@H](C2CCCC2)N(C)C(=O)C2(CCCC2)NC(=O)[C@@H]2CC3(CC3)CN2C(=O)[C@H](CCc2ccc(C(F)(F)F)c(Cl)c2)NC(=O)CN(C)C(=O)[C@@H]1Cc1ccc(C(F)(F)F)cc1 [PP0308] ([NMeL]I[Aze][Sar][NPrPhe(4-CF3)][Sar][hPhe(3-Cl-4-CF3)][Pro(4-spirocPr)][Ac5c][NMeGly(cPent)][NMeD]-Morpholide; lactam N-11) | B (a compound having 3 or more and less than 10 is denoted as B) | B (a compound having 3 or more and less than 10 is denoted as B) | 56 nM | – | – | – | – | –
3 | CC[C@H](C)[C@@H]1NC(=O)[C@H](CC(C)C)N(C)C(=O)C[C@@H](C(=O)N2CCOCC2)N(C)C(=O)[C@H](C2CCCC2)N(C)C(=O)C2(CCCC2)NC(=O)[C@@H]2CCCN2C(=O)[C@H](CCc2ccc(C(F)(F)F)c(Cl)c2)NC(=O)CN(C)C(=O)[C@H](Cc2ccc(C)cc2)N2CC=CC[C@@H](C2=O)N(C)C(=O)CN(C)C1=O [PP0460] | – | – | 5.4 nM | C (A compound having a KD ratio of 0.1 or more and less than 3 is denoted as C) | C (A compound having a KD ratio of 0.1 or more and less than 3 is denoted as C) | – | – | –
4 | CCO[C@@H]1C[C@H]2C(=O)NC3(CCC3)C(=O)N(C)[C@@H](C3CCCC3)C(=O)N(C)[C@H](C(=O)N(C)C)CC(=O)N(C)[C@@H](CC3CCCC3)C(=O)N[C@@H]([C@@H](C)CC)C(=O)N(C)CC(=O)N(C)[C@H]3C/C=C\CCN(C3=O)[C@@H](Cc3ccc(C)cc3)C(=O)N(C)CC(=O)N[C@@H](CCc3ccc(C(F)(F)F)c(C4CC4)c3)C(=O)N2C1 [PP2681] | – | – | 29.1 nM | – | – | A (a compound having 10 or more and less than 20 is denoted as A) | A (a compound having 10 or more and less than 20 is denoted as A) | –
5 | CCC(CC)[C@H]1C(=O)N(C)[C@H](C(=O)N2CCCCC2)CC(=O)N(C)[C@H]2CCC/C=C/c3ccc(cc3)C[C@@H](C(=O)N(C)CC(=O)N[C@@H](CCc3ccc(Cl)c(Cl)c3)C(=O)N3CCC[C@H]3C(=O)NC3(CC(C)(C)C3)C(=O)N1C)N1CC/C=C\C[C@@H](C1=O)N(C)C(=O)CN(C)C(=O)[C@H]([C@@H](C)CC)NC2=O [PP3055] | AA (a compound having 20 or more is denoted as AA) | A (a compound having 10 or more and less than 20 is denoted as A) | – | – | – | – | – | 69.2 nM
6 | CCO[C@@H]1C[C@H]2C(=O)NC3(CCC3)C(=O)N(C)[C@@H](C3CCCC3)C(=O)N(C)[C@H](C(=O)N3CCOCC3)CC(=O)N(C)[C@@H](COCC(F)(F)F)C(=O)N[C@@H]([C@@H](C)CC)C(=O)N(C)CC(=O)N(C)[C@H]3CCCCCN(C3=O)[C@@H](Cc3ccc(C(F)(F)F)cc3)C(=O)N(C)CC(=O)N[C@@H](CCc3cc(F)c(C(F)(F)F)c(F)c3)C(=O)N2C1 [PP0853] | B (a compound having 3 or more and less than 10 is denoted as B) | B (a compound having 3 or more and less than 10 is denoted as B) | 24.3 nM | – | – | – | – | –
7 | CCCN1C(=O)[C@@H]2CCN2C(=O)[C@H](Cc2ccccc2)N(C)C(=O)[C@H]([C@@H](C)CC)NC(=O)[C@H](CC(C)C)N(C)C(=O)C[C@@H](C(=O)N2CCOCC2)N(C)C(=O)[C@H](C2CCCC2)N(C)C(=O)C2(CCCC2)NC(=O)[C@@H]2CCCN2C(=O)[C@H](CCc2ccc(C(F)(F)F)c(Cl)c2)NC(=O)CN(C)C(=O)[C@@H]1Cc1ccc(C(F)(F)F)cc1 [PP0209] ([NMeL]I[NMeF][Aze][NPrPhe(4-CF3)][Sar][hPhe(3-Cl-4-CF3)]P[Ac5c][NMeGly(cPent)][NMeD]-Morpholide; lactam N-11) | C (A compound having a KD ratio of 0.1 or more and less than 3 is denoted as C) | C (A compound having a KD ratio of 0.1 or more and less than 3 is denoted as C) | 569 nM | – | – | – | – | –
8 | CCC[C@H]1C(=O)N[C@@H]([C@@H](C)CC)C(=O)N(C)CC(=O)N(C)[C@H]2C/C=C\CCN(C2=O)[C@@H](Cc2ccc(C(F)(F)F)cc2)C(=O)N(C)CC(=O)N[C@@H](CCc2cc(F)c(C(F)(F)F)c(F)c2)C(=O)N2C[C@H](OCC)C[C@H]2C(=O)NC2(CC(C)(C)C2)C(=O)N(C)[C@@H](CC(C)(C)C)C(=O)N(C)C(C(=O)N(C)C)CC(=O)N1C (stereo partly drawn) [PP2730] | – | – | 5.8 nM | – | – | A (a compound having 10 or more and less than 20 is denoted as A) | A (a compound having 10 or more and less than 20 is denoted as A) | –
9 | CCCN1C(=O)CN(C)C(=O)[C@@H]2CCN2C(=O)[C@H](CC)NC(=O)[C@H](CC(C)C)N(C)C(=O)C[C@@H](C(=O)N2CCOCC2)N(C)C(=O)[C@H](C2CCCC2)N(C)C(=O)C2(CCCC2)NC(=O)[C@@H]2CCCN2C(=O)[C@H](CCc2ccc(C(F)(F)F)c(Cl)c2)NC(=O)CN(C)C(=O)[C@@H]1Cc1ccc(C(F)(F)F)cc1 [PP0303] ([NMeL][Abu][Aze][Sar][NPrPhe(4-CF3)][Sar][hPhe(3-Cl-4-CF3)]P[Ac5c][NMeGly(cPent)][NMeD]-Morpholide; lactam N-11) | B (a compound having 3 or more and less than 10 is denoted as B) | B (a compound having 3 or more and less than 10 is denoted as B) | 349 nM | – | – | – | – | –
10 | CCC[C@H]1C(=O)N[C@H]([C@@H](C)CC)C(=O)N(C)CC(=O)N(C)[C@H]2C/C=C\CCN(C2=O)[C@@H](Cc2ccc(C)cc2)C(=O)N(C)CC(=O)N[C@@H](CCc2cc(F)c(C(F)F)c(F)c2)C(=O)N2C[C@H](OCC)C[C@H]2C(=O)NC2(CC(C)(C)C2)C(=O)N(C)[C@@H](C(CC)CC)C(=O)N(C)[C@H](C(=O)N(C)C)CC(=O)N1C (stereo in doubt) [PP2783] | – | – | 33.9 nM | – | – | A (a compound having 10 or more and less than 20 is denoted as A) | A (a compound having 10 or more and less than 20 is denoted as A) | –
11 | CCCN1C(=O)CN(C)C(=O)[C@@H]2CCN2C(=O)[C@H](C(CC)CC)NC(=O)[C@H](CC(C)C)N(C)C(=O)C[C@@H](C(=O)N2CCOCC2)N(C)C(=O)[C@H](C2CCCC2)N(C)C(=O)C2(CCCC2)NC(=O)[C@@H]2CCCN2C(=O)[C@H](CCc2cc(F)c(C(F)(F)F)c(F)c2)NC(=O)CN(C)C(=O)[C@@H]1Cc1ccc(C(F)(F)F)cc1 [PP0785] ([NMeL][Nva(3-Et)][Aze][Sar][NPrPhe(4-CF3)][Sar][hPhe(3,5-F2-4-CF3)]P[Ac5c][NMeGly(cPent)][NMeD]-Morpholide; lactam N-11) | – | – | 324 nM | B (a compound having 3 or more and less than 10 is denoted as B) | B (a compound having 3 or more and less than 10 is denoted as B) | – | – | –
12 | CCCN1C(=O)CN(C)C(=O)CN(C)C(=O)[C@H]([C@@H](C)CC)NC(=O)[C@@H]2CCCCCCC[C@@H](NC(=O)[C@@H]3C[C@@H](OCC)CN3C(=O)[C@H](CCc3cc(F)c(C(F)(F)F)c(F)c3)NC(=O)CN(C)C(=O)[C@@H]1Cc1ccc(C(F)(F)F)cc1)C(=O)N(C)[C@@H](C1CCCC1)C(=O)N(C)[C@H](C(=O)N(C)C)CC(=O)N2C [PP0925] | A (a compound having 10 or more and less than 20 is denoted as A) | B (a compound having 3 or more and less than 10 is denoted as B) | 91 nM | – | – | – | – | –
13 | CC[C@H](C)[C@@H]1NC(=O)[C@H](CC(C)C)N(C)C(=O)C[C@@H](C(=O)N2CCOCC2)N(C)C(=O)[C@H](C2CCCC2)N(C)C(=O)C2(CCCC2)NC(=O)[C@@H]2CCCN2C(=O)[C@H](CCc2ccc(C(F)(F)F)c(Cl)c2)NC(=O)CN(C)C(=O)[C@H](Cc2ccc(OC)cc2)N2C/C=C\CC[C@@H](C2=O)N(C)C(=O)CN(C)C1=O [PP0609] | – | – | 468 nM | B (a compound having 3 or more and less than 10 is denoted as B) | B (a compound having 3 or more and less than 10 is denoted as B) | – | – | –
